In patent publication US12534450B2, “Methods and compositions for targeting PD-L1” (Aligos Therapeutics, Inc., priority 2021, dated 2026):

Columns and labels:
PD-1/PD-L1 interaction = test: PD-1/PD-L1 NFAT Reporter Assay (co-culture of Jurkat T cells overexpressing PD-1 and PD-L1 expressing CHO cells); format: cell-based; conditions: co-culture 6 hrs at 37° C., NFAT-mediated luciferase activity
How it was run: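 Compounds added to CHO cells expressing surface anti-CD3 and PD-L1, then Jurkat cells with PD-1 and NFAT-driven luciferase seeded on top; co-culture 6 hrs at 37° C. Luminescence read after ONE-Glo addition, EC50 from dose-response fit.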

PD-1/PD-L1 PPI = PD-1/PD-L1 PPI (Homo sapiens, UniProt Q9NZQ7); test: PDL1/PD1 Binding Assay; conditions: PDL1-6×His 0.3 nM, PD1-Fc-Avi-Biotin 2.5 nM, Acceptor/Donor beads, Envision reader
How it was run: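 AlphaScreen competition: compound (1% DMSO) preincubated 30 min RT with PDL1-6×His (0.3 nM), then PD1-Fc-Avi-Biotin (2.5 nM) 30 min; anti-His acceptor and streptavidin donor beads (20 ug/mL each) added, 1 h each, dark up to overnight. Buffer 25 mM Hepes pH 7.4, 150 mM NaCl. IC50 by four-parameter fit.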

PD-1/PD-L1 PPI, sequence (Q9NZQ7 19-238 limits assumed): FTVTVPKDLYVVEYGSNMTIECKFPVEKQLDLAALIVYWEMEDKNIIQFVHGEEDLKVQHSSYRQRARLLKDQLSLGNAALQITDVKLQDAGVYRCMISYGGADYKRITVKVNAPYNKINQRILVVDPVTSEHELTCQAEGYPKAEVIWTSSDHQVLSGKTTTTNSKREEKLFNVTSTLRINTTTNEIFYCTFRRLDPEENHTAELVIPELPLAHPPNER

| SMILES | EC50 (PD-1/PD-L1 interaction; Homo sapiens, Jurkat, 6 h) | IC50 (PD-1/PD-L1 PPI) | EC50 (PD-1/PD-L1 interaction) |
| --- | --- | --- | --- |
| COc1nc(-c2cccc(-c3cc(F)cc(NC(=O)c4ccnn(C)c4=O)c3C)c2Cl)cc2c1[C@@H](NC[C@@H]1CCC(=O)N1)CC2 [Compound A-63] | ≤ 0.01 µM | ≤ 0.01 µM | – |
| COc1nc(-c2cccc(-c3cccc(NC(=O)c4cn(C)c(=O)n(C)c4=O)c3C)c2Cl)cc2c1[C@@H](N[C@@H]1CCOC[C@@H]1O)CC2 (single isomer, unassigned) [Compound A-40] | ≤ 0.01 µM | ≤ 0.01 µM | – |
| COc1nc(-c2cccc(-c3cccc(NC(=O)c4ccnn(C)c4=O)c3C)c2F)cc2c1[C@@H](NC[C@@H]1CCC(=O)N1)CC2 [Compound A-45] | 0.01 to 0.1 µM | ≤ 0.01 µM | – |
| COc1nc(-c2cccc(-c3cccc(NC(=O)c4cn(C)c(=O)n(C)c4=O)c3C)c2Cl)cc2c1C(NCC(N)=O)CC2 [Compound D-9] | 0.01 to 0.1 µM | ≤ 0.01 µM | – |
| COc1nc(-c2cccc(-c3cccc(NC(=O)c4nn(C)c(=O)n(C)c4=O)c3C)c2C)cc2c1[C@@H](N[C@@H]1CCOC[C@H]1O)CC2 (single isomer, unassigned) [Compound A-91] | 1 to 10 µM | ≤ 0.01 µM | – |
| COc1nc(-c2cccc(-c3cccc(NC(=O)c4ccnn(C)c4=O)c3Cl)c2Cl)cc2c1[C@@H](NC[C@@H]1CCC(=O)N1)CO2 [Compound A-44] | 0.01 to 0.1 µM | ≤ 0.01 µM | – |
| COc1nc(-c2cccc(-c3cccc(NC(=O)c4nn(C)c(=O)n(C)c4=O)c3C)c2C)cc2c1[C@@H](N[C@@H]1CCOC[C@@H]1O)CC2 (single isomer, unassigned) [Compound A-75] | 0.01 to 0.1 µM | ≤ 0.01 µM | – |
| COc1nc(-c2cccc(-c3cccc(NC(=O)c4cn(C)c(=O)n(C)c4=O)c3Cl)c2Cl)cc2c1C(N1CCN3C(=O)CC[C@@H]3C1)CC2 (some centres unmarked) [Compound A-118] | 0.01 to 0.1 µM | ≤ 0.01 µM | – |
| COc1nc(-c2cccc(-c3cccc(NC(=O)c4cn(C)c(=O)n(C)c4=O)c3C)c2Cl)cc2c1[C@@H](NC[C@@H]1CCC(=O)N1)CC2 [Compound A-2] | ≤ 0.01 µM | ≤ 0.01 µM | – |
| COc1nc(-c2cccc(-c3cccc(NC(=O)c4cn(C)c(=O)n(C)c4=O)c3C)c2C)cc2c1[C@H](N[C@@H]1CCOC[C@H]1O)CC2 (single isomer, unassigned) [Compound A-90] | 0.01 to 0.1 µM | ≤ 0.01 µM | – |
| COc1nc(-c2cccc(-c3cccc(NC(=O)c4cn(C)c(=O)n(C)c4=O)c3C)c2C)cc2c1C(N1CC(C)(OC)C1)CC2 [Compound D-18] | 0.01 to 0.1 µM | ≤ 0.01 µM | – |
| COc1nc(-c2cccc(-c3cccc(NC(=O)c4cn(C)c(=O)n(C)c4=O)c3C)c2Cl)cc2c1C(NC[C@@H]1CCC(=O)N1)C(F)C2 (single isomer, unassigned) [Compound K-1a] | – | ≤ 0.01 µM | 0.01 to 0.1 µM |
| COc1nc(-c2cccc(-c3cccc(NC(=O)c4cn(C)c(=O)n(C)c4=O)c3Cl)c2C)cc2c1[C@H](N[C@@H]1CCOC[C@@H]1O)CC2 (single isomer, unassigned) [Compound A-31] | 1 to 10 µM | ≤ 0.01 µM | – |
| COc1nc(-c2cccc(-c3cccc(NC(=O)c4nn(C)c(=O)n(C)c4=O)c3C)c2C)cc2c1[C@H](N[C@@H]1COC[C@H]1O)CC2 (single isomer, unassigned) [Compound A-104] | 0.01 to 0.1 µM | ≤ 0.01 µM | – |
| COc1nc(-c2cccc(-c3cccc(NC(=O)c4cn(C)c(=O)n(C)c4=O)c3C)c2Cl)cc2c1[C@@H](NC[C@H]1CCC(=O)N1)CC2 (single isomer, unassigned) [Compound A-113] | 1 to 10 µM | 0.01 to 0.1 µM | – |
| COc1nc(-c2cccc(-c3cccc(NC(=O)c4cn(C)c(=O)n(C)c4=O)c3Cl)c2Cl)cc2c1C(N[C@@H]1COC[C@@H]1O)CC2 (stereo partly drawn) [Compound D-4] | 0.01 to 0.1 µM | ≤ 0.01 µM | – |
| COc1nc(-c2cccc(-c3cccc(NC(=O)c4cn(C)c(=O)n(C)c4=O)c3C)c2Cl)cc2c1C(NC[C@@H]1CCC(=O)N1)C(C)C2 (some centres unmarked) [Compound A-121] | 0.01 to 0.1 µM | ≤ 0.01 µM | – |
| COc1nc(-c2cccc(-c3cccc(NC(=O)c4cn(C)c(=O)n(C)c4=O)c3C)c2C)cc2c1[C@@H](N[C@@H]1COC[C@H]1O)CC2 (single isomer, unassigned) [Compound A-97] | 1 to 10 µM | 0.01 to 0.1 µM | – |
| COc1nc(-c2cccc(-c3cccc(NC(=O)c4cn(C)c(=O)n(C)c4=O)c3Cl)c2C)cc2c1[C@@H](N[C@@H]1CCOC[C@@H]1O)CC2 (single isomer, unassigned) [Compound A-39] | ≤ 0.01 µM | ≤ 0.01 µM | – |

| SMILES | EC50 (PD-1/PD-L1 interaction; Homo sapiens, Jurkat, 6 h) | IC50 (PD-1/PD-L1 PPI) | EC50 (PD-1/PD-L1 interaction) |
| --- | --- | --- | --- |
| CCCCOC(=O)N(C[C@@H]1CCC(=O)N1)[C@H]1CCc2cc(-c3cccc(-c4cccc(NC(=O)c5cn(C)c(=O)n(C)c5=O)c4C)c3Cl)nc(OC)c21 [Compound E-2] | > 10 µM | ≤ 0.01 µM | – |
| COc1nc(-c2cccc(-c3cccc(NC(=O)c4cn(C)c(=O)n(C)c4=O)c3Cl)c2C)cc2c1[C@@H](NC[C@@H]1CCC(=O)N1)CC2 [Compound A-4] | ≤ 0.01 µM | ≤ 0.01 µM | – |
| COc1nc(-c2cccc(-c3cccc(NC(=O)c4nn(C)c(=O)n(C)c4=O)c3C)c2C)cc2c1[C@@H](N[C@@H]1COC[C@H]1O)CC2 (single isomer, unassigned) [Compound A-103] | > 5 µM | 0.01 to 0.1 µM | – |
| COc1nc(-c2cccc(-c3cccc(NC(=O)c4cn(C)c(=O)n(C)c4=O)c3C#N)c2Cl)cc2c1[C@@H](NC[C@@H]1CCC(=O)N1)CC2 [Compound A-57] | ≤ 0.01 µM | ≤ 0.01 µM | – |
| COc1nc(-c2cccc(-c3cccc(NC(=O)c4nn(C)c(=O)n(C)c4=O)c3C)c2C)cc2c1[C@H](N[C@@H]1CCOC[C@H]1O)CC2 (single isomer, unassigned) [Compound A-92] | 0.01 to 0.1 µM | ≤ 0.01 µM | – |
| COc1nc(-c2cccc(-c3cccc(NC(=O)c4cn(C)c(=O)n(C)c4=O)c3Cl)c2Cl)cc2c1C(N1CC(O)C1)CC2 [Compound D-2] | ≤ 0.01 µM | ≤ 0.01 µM | – |
| COc1nc(-c2cccc(-c3cccc(NC(=O)c4nn(C)c(=O)n(C)c4=O)c3C)c2Cl)cc2c1[C@H](N[C@@H]1COC[C@@H]1O)CC2 (single isomer, unassigned) [Compound A-110] | 0.1 to 1 µM | ≤ 0.01 µM | – |
| COc1nc(-c2cccc(-c3cccc(NC(=O)c4cn(C)c(=O)n(C)c4=O)c3Cl)c2Cl)cc2c1C(N1CC3(CCNC3)C1)CC2 (centres unmarked) [Compound G-1] | 0.01 to 0.1 µM | ≤ 0.01 µM | – |
| COc1nc(-c2cccc(-c3cccc(NC(=O)c4cn(C)c(=O)n(C)c4=O)c3Cl)c2Cl)cc2c1C(N1CC3(CCNC3=O)C1)CC2 [Compound D-3] | ≤ 0.01 µM | ≤ 0.01 µM | – |
| COc1nc(-c2cccc(-c3cccc(NC(=O)c4cn(C)c(=O)n(C)c4=O)c3Cl)c2Cl)cc2c1C(N1CC3(CNC(=O)C3)C1)CC2 (single isomer, unassigned) [Compound A-130] | 0.01 to 0.1 µM | ≤ 0.01 µM | – |
| COc1nc(-c2cccc(-c3ccc(F)c(NC(=O)c4cn(C)c(=O)n(C)c4=O)c3C)c2Cl)cc2c1[C@@H](NC[C@@H]1CCC(=O)N1)CC2 [Compound A-59] | 0.01 to 0.1 µM | ≤ 0.01 µM | – |
| COc1nc(-c2cccc(-c3cccc(NC(=O)c4cn(C)c(=O)n(C)c4=O)c3C)c2C)cc2c1[C@@H](N[C@@H]1CCOC[C@@H]1O)CC2 (single isomer, unassigned) [Compound A-41] | ≤ 0.01 µM | ≤ 0.01 µM | – |
| COc1nc(-c2cccc(-c3cccc(NC(=O)c4cn(C)c(=O)n(C)c4=O)c3Cl)c2Cl)cc2c1[C@@H](N1CC3(CCC(=O)N3)C1)CC2 (single isomer, unassigned) [Compound A-20] | 0.01 to 0.1 µM | ≤ 0.01 µM | – |
| COc1nc(-c2cccc(-c3cccc(NC(=O)c4cn(C)c(=O)n(C)c4=O)c3Cl)c2Cl)cc2c1[C@H](N1CC3(CN(C(C)=O)C3)C1)CC2 (single isomer, unassigned) [Compound A-23] | ≤ 0.01 µM | ≤ 0.01 µM | – |
| COc1nc(-c2cccc(-c3cc(F)cc(NC(=O)c4cn(C)c(=O)n(C)c4=O)c3C)c2Cl)cc2c1[C@@H](NC[C@@H]1CCC(=O)N1)CC2 [Compound A-60] | ≤ 0.01 µM | ≤ 0.01 µM | – |
| COc1nc(-c2cccc(-c3cccc(NC(=O)c4cn(C)c(=O)n(C)c4=O)c3Cl)c2Cl)cc2c1[C@H](NC[C@@H]1CNC(=O)C1)CC2 (single isomer, unassigned) [Compound A-136] | ≤ 0.01 µM | ≤ 0.01 µM | – |
| COc1nc(-c2cccc(-c3cccc(NC(=O)c4cn(C)c(=O)n(C)c4=O)c3Cl)c2Cl)cc2c1C(N1CCN3C(=O)CC[C@H]3C1)CC2 (some centres unmarked) [Compound A-117] | 0.01 to 0.1 µM | ≤ 0.01 µM | – |
| COc1nc(-c2cccc(-c3cccc(NC(=O)c4cn(C)c(=O)n(C)c4=O)c3C)c2C)cc2c1C(N1C[C@@H](O)[C@@H]1C)CC2 (stereo partly drawn) [Compound D-19] | 0.1 to 1 µM | ≤ 0.01 µM | – |
